The results in this text go back to paper PMC8952208, “Synthesis, Antiplasmodial, and Antileukemia Activity of Dihydroartemisinin–HDAC Inhibitor Hybrids as Multitarget Drugs” (Pharmaceuticals, 2022).

Where only a bound is given, the exact number is not on record here.

Broadly, the IC50 is the concentration needed to halve the response being measured.

Assay [1] relates to Healthy Fibroblast 1. Kind of assay: Cytotoxicity against healthy fibroblast 1. It is filed as cell-based. The conditions noted are these: Homo sapiens, healthy individually-derived fibroblasts. The method, then:
(§1) Healthy individually-derived fibroblasts were cultured in DMEM supplemented with 10% FCS. Regular cell line authentication was performed short tandem repeat (STR) analysis (DNA fingerprinting), followed by comparison with the original DSMZ cell line database.
(§2) Cell viability assay was performed with leukemic cell lines after 72 h incubation with the respective inhibitors using ATP-based CellTiter-Glo luminescent assay (Promega, Madison, WI, USA).

Assay [2] concerns the target T1, human HDAC6 (hHDAC6) (Homo sapiens, UniProt Q9UBN7).
T1 construct: purchased BPS Bioscience Inc. 50006
T1 sequence (Q9UBN7 1-1215): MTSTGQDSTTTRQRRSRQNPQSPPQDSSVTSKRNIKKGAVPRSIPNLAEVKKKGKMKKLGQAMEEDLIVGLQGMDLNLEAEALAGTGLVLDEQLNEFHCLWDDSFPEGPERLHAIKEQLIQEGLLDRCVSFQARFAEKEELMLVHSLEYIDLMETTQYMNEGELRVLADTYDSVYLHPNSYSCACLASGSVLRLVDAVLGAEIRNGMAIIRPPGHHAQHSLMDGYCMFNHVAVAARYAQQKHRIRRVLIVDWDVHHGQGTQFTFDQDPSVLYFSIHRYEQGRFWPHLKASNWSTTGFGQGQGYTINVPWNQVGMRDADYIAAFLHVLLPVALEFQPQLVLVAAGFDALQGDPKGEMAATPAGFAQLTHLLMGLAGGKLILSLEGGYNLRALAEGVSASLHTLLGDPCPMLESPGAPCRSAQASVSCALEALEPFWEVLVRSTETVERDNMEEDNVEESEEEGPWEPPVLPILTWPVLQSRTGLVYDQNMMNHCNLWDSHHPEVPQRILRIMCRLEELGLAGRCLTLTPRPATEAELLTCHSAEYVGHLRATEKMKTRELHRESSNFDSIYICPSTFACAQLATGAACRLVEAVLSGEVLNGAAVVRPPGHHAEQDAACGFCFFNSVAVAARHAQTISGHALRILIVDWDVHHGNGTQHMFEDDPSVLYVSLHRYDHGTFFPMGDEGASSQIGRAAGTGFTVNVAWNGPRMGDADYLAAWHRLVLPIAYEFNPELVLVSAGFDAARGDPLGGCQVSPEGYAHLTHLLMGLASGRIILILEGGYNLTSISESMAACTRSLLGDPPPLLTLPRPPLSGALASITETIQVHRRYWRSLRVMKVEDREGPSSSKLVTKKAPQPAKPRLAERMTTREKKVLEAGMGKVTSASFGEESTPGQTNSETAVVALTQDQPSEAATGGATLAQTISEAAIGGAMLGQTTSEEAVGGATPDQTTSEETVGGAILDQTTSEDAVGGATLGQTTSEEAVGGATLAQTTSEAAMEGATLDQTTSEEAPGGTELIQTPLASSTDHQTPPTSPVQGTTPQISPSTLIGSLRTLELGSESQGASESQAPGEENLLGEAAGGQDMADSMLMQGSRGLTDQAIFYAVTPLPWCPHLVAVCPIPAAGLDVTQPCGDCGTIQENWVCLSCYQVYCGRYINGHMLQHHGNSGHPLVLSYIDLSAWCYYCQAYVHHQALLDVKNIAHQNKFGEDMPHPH
Kind of assay: In vitro human HDAC6 assay (ZMAL substrate). The class given is biochemical. The settings on record: for SI 1/6: Selectivity Index = (hHDAC1 IC50)/(hHDAC6 IC50). The method, then:
(§3) OptiPlate-96 black microplates (Perkin Elmer Inc., Waltham, MA, USA) were used with an assay volume of 50 µL. […] After an incubation time of 90 min, 50 µL of 0.4 mg/mL trypsin in trypsin buffer (50 mM Tris-HCl, pH 8.0, and 100 mM NaCl) was added, followed by further incubation at 37 °C for 30 min.

Assay [3] concerns K562 cells. The assay is described as follows: CellTiter-Glo cell viability assay, K562. The conditions noted are these: for IC50: Homo sapiens, K562, CML, 72 h, CellTiter-Glo, n = 3; for Selectivity index range healthy fibroblasts vs K562: SI = (healthy fibroblast IC50)/(leukemia cell line IC50), range over two fibroblasts. It is filed as cell-based, human. The method, then:
as §1, §2

In assay [4] the test system is P. falciparum 3D7. The assay is described as follows: microbe, parasite or virus in culture. It is filed as cell-based. The settings on record: Plasmodium falciparum, 3D7, 72 h; asexual blood stages, three days incubation; n ≥ 2 in duplicate, mean ± SD; read-out: Pf3D7 IC50. The method, then:
(§4) [38, 39] […] After three days of incubation at 37 °C, 5% CO2 and 5% O2 plates were frozen until analyzed by HRP2-ELISA. All compounds were evaluated in duplicate in at least two independent experiments. The IC50 was determined by nonlinear regression analysis of log concentration-response curves using the drc-package v3.0.1 [40] of R v4.0.5..

Assay [5] deals with P. falciparum Dd2. The assay is described as follows: microbe, parasite or virus in culture. It is filed as cell-based. The conditions noted are these: Plasmodium falciparum, DD2, 72 h, read-out: PfDd2 IC50. The method, then: as §4
For assay [6], the system named is HPBALL cells. Kind of assay: CellTiter-Glo cell viability assay, HPBALL. It is filed as cell-based, human. The conditions noted are these: for IC50: Homo sapiens, HPBALL, T-ALL, 72 h, CellTiter-Glo, n = 3; for Selectivity index range healthy fibroblasts vs HPB ALL: SI = (healthy fibroblast IC50)/(leukemia cell line IC50), range over two fibroblasts. The method, then: as §1, §2
In general terms: In ATP-based viability assays light output follows the ATP content of the culture.

Assay [7] concerns the target T2, human HDAC1 (hHDAC1) (Homo sapiens, UniProt Q13547).
T2 construct: purchased BPS Bioscience Inc. 50051
Kind of assay: In vitro human HDAC1 assay (ZMAL substrate). It is filed as biochemical. The method, then:
as §3

The test system of assay [8] is A2780 cells. Kind of assay: MTT cell viability assay. It is filed as cell-based. The conditions noted are these: Homo sapiens, 72 h, n ≥ 3 in triplicate, mean ± SD. The method, then: Reagents were obtained from PAN Biotech, Aidenbach Germany. The cell line was cultured at 37 °C under humidified air with 5% CO2 to a confluence of 80–90% before being used for further assays.
Intrinsic cytotoxicity of test compounds was determined by an MTT assay as previously described. A2780 cells were seeded in 96-well plates (Starlab GmbH, Hamburg, Germany) at a density of 20,000 cells/well and allowed to attach for 12 h. Cells were then treated with increasing concentrations of the test compounds. After 72 h, MTT (3-(4,5-dimethylthiazol-2-yl)-2,5-diphenyltetrazolium bromide) (BioChemica, Applichem GmbH, Darmstadt, Germany) solution (5 mg/mL in phosphate-buffered saline) was added to determine cell survival. The formazan dye was dissolved in DMSO (Sigma-Aldrich, Darmstadt, Germany) after 1 h. Absorbance was measured at 570 nm and 690 nm in a Multiskan microplate photometer (Thermo Fisher Scientific, Waltham, MA, USA). Concentration-response curves were generated using the four-parameter logistic equation (GraphPad Prism 9.0, San Diego, USA), and mean IC50 values were calculated in triplicates based on at least three different experiments.
For orientation: Tetrazolium dyes change colour on reduction, which living cells bring about.

T2 sequence (Q13547 whole entry): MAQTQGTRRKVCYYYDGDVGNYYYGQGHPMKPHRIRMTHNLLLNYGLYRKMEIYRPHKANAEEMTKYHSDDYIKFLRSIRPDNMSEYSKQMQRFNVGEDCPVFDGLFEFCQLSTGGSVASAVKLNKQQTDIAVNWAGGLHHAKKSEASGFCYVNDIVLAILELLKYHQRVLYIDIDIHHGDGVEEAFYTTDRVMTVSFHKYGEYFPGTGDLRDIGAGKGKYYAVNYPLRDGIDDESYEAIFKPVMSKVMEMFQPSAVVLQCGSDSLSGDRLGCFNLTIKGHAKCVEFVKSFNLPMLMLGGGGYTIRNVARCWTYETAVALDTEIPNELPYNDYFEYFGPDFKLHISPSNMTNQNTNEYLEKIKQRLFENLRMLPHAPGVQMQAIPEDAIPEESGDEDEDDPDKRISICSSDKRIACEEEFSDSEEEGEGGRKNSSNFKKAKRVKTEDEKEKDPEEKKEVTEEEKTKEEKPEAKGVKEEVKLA

As to `C[C@H]1[C@H](SCc2ccc(C(=O)NO)cc2)O[C@@H]2O[C@@]3(C)CC[C@H]4[C@H](C)CC[C@@H]1[C@@]24OO3` [(β)-7c, N-Hydroxy-4-((((3R,5aS,6R,8aS,9R,10S,12S,12aR)-3,6,9-trimethyldecahydro-12H-3,12-epoxy[1,2]dioxepino[4,3-i]isochromen-10-yl)thio)methyl)benzamide], the half-maximal inhibitory concentration (IC50) in assay [1] was 14700 ± 3420 nM; in assay [2], 41 ± 9 nM; in assay [3], 410 ± 110 nM; in assay [4], 3.6 ± 1.1 nM; in assay [5], 3.2 ± 0.02 nM; in assay [6], 12300 ± 570 nM. For the same compound, the IC50 in assay [7] was determined as 2790 ± 140 nM; in assay [8] it was 880 ± 130 nM. In addition, the “SI 1/6” value in assay [2] stood at 68. Also, in assay [3], the “Selectivity index range healthy fibroblasts vs K562” value was 36-43. Besides, the “Selectivity index range healthy fibroblasts vs HPB ALL” value in assay [6] is 1.2-1.4.

Regarding `C[C@H]1[C@@H](SCc2ccc(C(=O)NO)cc2)O[C@@H]2O[C@@]3(C)CC[C@H]4[C@H](C)CC[C@@H]1[C@@]24OO3` [(α)-7c, N-Hydroxy-4-((((3R,5aS,6R,8aS,9R,10R,12S,12aR)-3,6,9-trimethyldecahydro-12H-3,12-epoxy[1,2]dioxepino[4,3-i]isochromen-10-yl)thio)methyl)benzamide], the IC50 in assay [1] was determined as 12690 ± 120 nM; in assay [2], 36 ± 8 nM; in assay [3] it was 620 ± 60 nM; in assay [4], 3.3 ± 1.4 nM; in assay [5] it was 3.4 ± 0.12 nM; in assay [6], 6720 ± 440 nM. Further, the IC50 worked out at 2000 ± 200 nM in assay [7] and 1100 ± 250 nM in assay [8]. Moreover, in assay [2], the “SI 1/6” value was 56. For the same compound, in assay [3], the “Selectivity index range healthy fibroblasts vs K562” value was 12-21. In assay [6], the “Selectivity index range healthy fibroblasts vs HPB ALL” value is reported as 1.1-1.9.

As to `C[C@@H]1CC[C@H]2[C@@H](C)C(OCc3ccc(/C=C/C(=O)NO)cc3)O[C@@H]3O[C@@]4(C)CC[C@@H]1[C@]32OO4` (stereo partly drawn) [Compound 7a, (E)-N-Hydroxy-3-(4-((((3R,5aS,6R,8aS,9R,12R,12aR)-3,6,9-trimethyldecahydro-12H-3,12-epoxy[1,2]dioxepino[4,3-i]isochromen-10-yl)oxy)methyl)phenyl)acrylamide], the IC50 in assay [1] is 13100 ± 100 nM; in assay [2], 187 ± 4 nM; in assay [3] it was 310 ± 60 nM; in assay [4], 2.6 ± 1.4 nM; in assay [5], 1.7 ± 0.92 nM; in assay [6], 1360 ± 30 nM. For the same compound, the IC50 in assay [7] is 546 ± 0.3 nM; in assay [8] it was 1950 ± 520 nM. For the same compound, in assay [2], the “SI 1/6” value is recorded as 3. Besides, the “Selectivity index range healthy fibroblasts vs K562” value in assay [3] is 21-42. Further, the “Selectivity index range healthy fibroblasts vs HPB ALL” value in assay [6] was 5-10.

On to `C[C@H]1[C@@H](O)O[C@@H]2O[C@@]3(C)CC[C@H]4[C@H](C)CC[C@@H]1[C@@]24OO3` [DHA, dihydroartemisinin], for which the IC50 is above 25000 nM in assay [1]; above 10000 nM in assay [2]; 2400 ± 660 nM in assay [3]; 3 ± 2.7 nM in assay [4]; 1.8 ± 0.02 nM in assay [5]; 9930 ± 1510 nM in assay [6]. Moreover, the results for the IC50 in assay [7] and in assay [8] were above 10000 nM and 970 ± 70 nM, respectively.
